Results reported in ChEMBL document CHEMBL1123524, “Aminoglycoside antibiotics. 6. Chemical reactions of aminoglycosides with disodium carbenicillin” (1986).

Key:
Type in all cases: functional
Escherichia coli [1] = experiment: Antibacterial activity expressed as MIC value was determined on Escherichia coli A-9632 organism
Escherichia coli [2] = experiment: Antibacterial activity expressed as MIC value was determined on Escherichia coli A-22356 organism
Escherichia coli [3] = experiment: Antibacterial activity expressed as MIC value was determined on Escherichia coli A-20665 organism
Escherichia coli [4] = experiment: Antibacterial activity expressed as MIC value was determined on Escherichia coli A-20683 organism
Escherichia coli [5] = experiment: Antibacterial activity expressed as MIC value was determined on Escherichia coli A-20697 organism
Escherichia coli [6] = experiment: Antibacterial activity expressed as MIC value was determined on Escherichia coli A-20732 organism
Escherichia coli [7] = experiment: Antibacterial activity expressed as MIC value was determined on Escherichia coli A-20895 organism
Escherichia coli [8] = experiment: Antibacterial activity expressed as MIC value was determined on Escherichia coli A-21218 organism
Escherichia coli [9] = experiment: Antibacterial activity expressed as MIC value was determined on Escherichia coli A-22045 organism
Enterobacter cloacae [10] = experiment: Antibacterial activity expressed as MIC value was determined on Enterobacter cloacae A-21006 organism
Enterobacter cloacae [11] = experiment: Antibacterial activity expressed as MIC value was determined on Enterobacter cloacae A-21136 organism
Enterobacter cloacae [12] = experiment: Antibacterial activity expressed as MIC value was determined on Enterobacter cloacae A-9656 organism
Klebsiella pneumoniae = experiment: Antibacterial activity expressed as MIC value was determined on Klebsiella pneumonia A-20468 organism
Providencia stuartii [13] = experiment: Antibacterial activity expressed as MIC value was determined on Proteus stuartii A-21210 organism
Providencia rettgeri [14] = experiment: Antibacterial activity expressed as MIC value was determined on Proteus rettgeri A-9637 organism
Proteus mirabilis = experiment: Antibacterial activity expressed as MIC value was determined on Proteus mirabilis A-9900 organism
Pseudomonas aeruginosa [15] = experiment: Antibacterial activity expressed as MIC value was determined on Pseudomonas aeruginosa A-20601 organism
Pseudomonas aeruginosa [16] = experiment: Antibacterial activity expressed as MIC value was determined on Pseudomonas aeruginosa A-20653 organism
Pseudomonas aeruginosa [17] = experiment: Antibacterial activity expressed as MIC value was determined on Pseudomonas aeruginosa A-20717 organism
Pseudomonas aeruginosa [18] = experiment: Antibacterial activity expressed as MIC value was determined on Pseudomonas aeruginosa A-20897 organism
Pseudomonas aeruginosa [19] = experiment: Antibacterial activity expressed as MIC value was determined on Pseudomonas aeruginosa A-21294 organism
Providencia rettgeri [20] = experiment: Antibacterial activity expressed as MIC value was determined on Proteus rettgeri A-21207 organism
Pseudomonas aeruginosa [21] = experiment: Antibacterial activity expressed as MIC value was determined on Pseudomonas aeruginosa A-21509 organism
Pseudomonas aeruginosa [22] = experiment: Antibacterial activity expressed as MIC value was determined on Pseudomonas aeruginosa A-22233 organism
Pseudomonas aeruginosa [23] = experiment: Antibacterial activity expressed as MIC value was determined on Pseudomonas aeruginosa A-9834A organism
Serratia marcescens = experiment: Antibacterial activity expressed as MIC value was determined on Serratia marcescens A-20019 organism
Staphylococcus aureus [24] = experiment: Antibacterial activity expressed as MIC value was determined on Staphylococcus aureus A-20240 organism
Staphylococcus aureus [25] = experiment: Antibacterial activity expressed as MIC value was determined on Staphylococcus aureus A-21978 organism
Staphylococcus aureus [26] = experiment: Antibacterial activity expressed as MIC value was determined on Staphylococcus aureus A-22058 organism
Staphylococcus aureus [27] = experiment: Antibacterial activity expressed as MIC value was determined on Staphylococcus aureus A-22210 organism
Staphylococcus aureus [28] = experiment: Antibacterial activity expressed as MIC value was determined on Staphylococcus aureus A-22231 organism
Staphylococcus aureus [29] = experiment: Antibacterial activity expressed as MIC value was determined on Staphylococcus aureus A-9537 organism
Providencia stuartii [30] = experiment: Antibacterial activity expressed as MIC value was determined on Proteus stuartii A-20894 organism
Pseudomonas aeruginosa [31] = experiment: Antibacterial activity expressed as MIC value was determined on Pseudomonas aeruginosa A-20741 organism
Enterobacter cloacae [32] = experiment: Antibacterial activity expressed as MIC value was determined on Enterobacter cloacae A-20364 organism
Pseudomonas aeruginosa [33] = experiment: Antibacterial activity expressed as MIC value was determined on Pseudomonas aeruginosa A-21508 organism

| Compound | MIC (Escherichia coli [1]) [µg/mL] | MIC (Escherichia coli [2]) [µg/mL] | MIC (Escherichia coli [3]) [µg/mL] | MIC (Escherichia coli [4]) [µg/mL] | MIC (Escherichia coli [5]) [µg/mL] | MIC (Escherichia coli [6]) [µg/mL] | MIC (Escherichia coli [7]) [µg/mL] | MIC (Escherichia coli [8]) [µg/mL] | MIC (Escherichia coli [9]) [µg/mL] | MIC (Enterobacter cloacae [10]) [µg/mL] | MIC (Enterobacter cloacae [11]) [µg/mL] | MIC (Enterobacter cloacae [12]) [µg/mL] | MIC (Klebsiella pneumoniae) [µg/mL] | MIC (Providencia stuartii [13]) [µg/mL] | MIC (Providencia rettgeri [14]) [µg/mL] | MIC (Proteus mirabilis) [µg/mL] | MIC (Pseudomonas aeruginosa [15]) [µg/mL] | MIC (Pseudomonas aeruginosa [16]) [µg/mL] | MIC (Pseudomonas aeruginosa [17]) [µg/mL] | MIC (Pseudomonas aeruginosa [18]) [µg/mL] | further results |
| --- | --- | --- | --- | --- | --- | --- | --- | --- | --- | --- | --- | --- | --- | --- | --- | --- | --- | --- | --- | --- | --- |
| CC1(C)S[C@@H]2[C@H](NC(=O)C(C(=O)O)c3ccccc3)C(=O)N2[C@H]1C(=O)O.NC[C@H]1O[C@H](O[C@H]2[C@H](O)[C@@H](O[C@H]3O[C@H](CO)[C@@H](O)[C@H](N)[C@H]3O)[C@H](N)C[C@@H]2N)[C@H](N)C[C@@H]1O | > 250 | > 250 | > 250 | > 250 | > 250 | > 250 | > 250 | > 250 | > 250 | > 250 | > 250 | > 250 | > 250 | > 250 | 125 | > 250 | > 250 | 250 | > 250 | > 250 | MIC (Pseudomonas aeruginosa [19]): > 250 µg/mL; MIC (Providencia rettgeri [20]): > 250 µg/mL; MIC (Pseudomonas aeruginosa [21]): > 250 µg/mL; MIC (Pseudomonas aeruginosa [22]): > 250 µg/mL; MIC (Pseudomonas aeruginosa [23]): 250 µg/mL; MIC (Serratia marcescens): 250 µg/mL; MIC (Staphylococcus aureus [24]): > 250 µg/mL; MIC (Staphylococcus aureus [25]): > 250 µg/mL; MIC (Staphylococcus aureus [26]): > 250 µg/mL; MIC (Staphylococcus aureus [27]): > 250 µg/mL; MIC (Staphylococcus aureus [28]): 63 µg/mL; MIC (Staphylococcus aureus [29]): 63 µg/mL; MIC (Providencia stuartii [30]): > 250 µg/mL; MIC (Pseudomonas aeruginosa [31]): > 250 µg/mL; MIC (Enterobacter cloacae [32]): > 250 µg/mL; MIC (Pseudomonas aeruginosa [33]): 250 µg/mL |
| CC1(C)S[C@@H]2[C@H](NC(=O)C(C(=O)O)c3ccccc3)C(=O)N2[C@H]1C(=O)O.NC[C@H]1O[C@H](O[C@H]2[C@H](O)[C@@H](O[C@H]3O[C@H](CO)[C@@H](O)[C@H](N)[C@H]3O)[C@H](N)C[C@@H]2N)[C@H](O)[C@@H](O)[C@@H]1O | > 250 | > 250 | > 250 | > 250 | > 250 | > 250 | > 250 | > 250 | > 250 | > 250 | > 250 | > 250 | > 250 | > 250 | 250 | > 250 | > 250 | > 250 | > 250 | > 250 | MIC (Pseudomonas aeruginosa [19]): > 250 µg/mL; MIC (Providencia rettgeri [20]): > 250 µg/mL; MIC (Pseudomonas aeruginosa [21]): > 250 µg/mL; MIC (Pseudomonas aeruginosa [22]): > 250 µg/mL; MIC (Pseudomonas aeruginosa [23]): > 250 µg/mL; MIC (Serratia marcescens): > 250 µg/mL; MIC (Staphylococcus aureus [24]): > 250 µg/mL; MIC (Staphylococcus aureus [25]): > 250 µg/mL; MIC (Staphylococcus aureus [26]): > 250 µg/mL; MIC (Staphylococcus aureus [27]): > 250 µg/mL; MIC (Staphylococcus aureus [28]): > 250 µg/mL; MIC (Staphylococcus aureus [29]): > 250 µg/mL; MIC (Providencia stuartii [30]): > 250 µg/mL; MIC (Pseudomonas aeruginosa [31]): > 250 µg/mL; MIC (Enterobacter cloacae [32]): > 250 µg/mL; MIC (Pseudomonas aeruginosa [33]): > 250 µg/mL |
